Source: article PMC5607274, “An iterative compound screening contest method for identifying target protein inhibitors using the tyrosine-protein kinase Yes” (Scientific Reports, 2017)

Biological target: T1, human recombinant Yes [a.a. 2–543 (end)] (Homo sapiens, UniProt P07947)
T1 construct: human recombinant Yes [a.a; 2–543 (end)]; purchased BPS Bioscience 40488
Assay: ADP-Glo kinase assay, inhibition rates of Yes phosphorylation activity (first and second screening)
Type: biochemical
Settings: 10 μmol L−1 compound; for First screening IR (inhibition rate): mean of n = 4 wells; for Second screening IR (inhibition rate): dissolved from fresh powder, n = 4
In short: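 Hits from a first pass were rescreened after re-dissolution from fresh powder. The first pass reported the mean inhibition rate of quadruplicate wells per compound. Activity was that of recombinant human Yes [a.a. 2–543] kinase, read out with the ADP-Glo ADP-detection method.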

T1 sequence (P07947 2-543): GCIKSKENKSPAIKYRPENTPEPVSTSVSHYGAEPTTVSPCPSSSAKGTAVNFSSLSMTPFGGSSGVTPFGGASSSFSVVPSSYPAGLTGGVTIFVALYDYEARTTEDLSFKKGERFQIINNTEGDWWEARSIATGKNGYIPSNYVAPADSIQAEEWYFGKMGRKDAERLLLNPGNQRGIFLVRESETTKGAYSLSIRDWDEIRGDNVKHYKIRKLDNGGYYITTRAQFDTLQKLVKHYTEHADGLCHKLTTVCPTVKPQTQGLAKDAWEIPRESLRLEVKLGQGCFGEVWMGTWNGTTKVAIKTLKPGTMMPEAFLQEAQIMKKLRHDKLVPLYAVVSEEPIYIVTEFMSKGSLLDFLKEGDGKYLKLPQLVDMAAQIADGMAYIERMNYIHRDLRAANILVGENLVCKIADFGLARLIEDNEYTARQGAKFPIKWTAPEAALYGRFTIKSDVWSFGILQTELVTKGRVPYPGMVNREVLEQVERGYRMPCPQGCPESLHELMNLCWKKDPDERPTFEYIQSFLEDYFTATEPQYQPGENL

SMILES	First screening IR (inhibition rate)	Second screening IR (inhibition rate)
Cl.Clc1ccc(-c2cc(-c3ccccc3Cl)c3cc(Cl)ccc3n2)cc1 [Compound Z48951731]	-3%	
Cl.N#Cc1ccc(-c2cc(-c3ccccc3Cl)c3cc(Cl)ccc3n2)cc1 [Compound Z48951737]	1%	
Cc1c(-c2ccc(O)cc2)nc2ccc(Cl)cc2c1-c1ccccc1Cl.Cl [Compound Z48951741]	40%	
Cc1ccc(-c2c3c(nc4sc5c(c24)CCC5)CCC(C(C)(C)C)C3)cc1.Cl (centres unmarked) [Compound Z48952614]	4%	
Cl.Fc1ccccc1-c1c2c(nc3ccc(Cl)cc13)-c1ccccc1OC2 [Compound Z48955788]	-15%	
Cl.Fc1ccccc1-c1cc(-c2ccccc2F)c2cc(Cl)ccc2n1 [Compound Z48955797]	11%	
Cl.Fc1ccccc1-c1c2c(nc3ccc(Cl)cc13)-c1ccccc1CC2 [Compound Z48955803]	15%	
Cl.Fc1ccccc1-c1cc(-c2ccccc2)nc2ccc(Cl)cc12 [Compound Z48955825]	-1%	
Cc1ccc(-c2cc(-c3ccccc3F)c3cc(Cl)ccc3n2)cc1.Cl [Compound Z48955827]	12%	
Cl.N#Cc1ccc(-c2cc(-c3ccccc3F)c3cc(Cl)ccc3n2)cc1 [Compound Z48955841]	3%	
Cc1c(-c2ccc(O)cc2)nc2ccc(Cl)cc2c1-c1ccccc1F.Cl [Compound Z48955845]	3%	
Cc1cc(C)nc(N/N=C/c2ccc3ncccc3c2)n1 [Compound Z49539423]	-6%	
COc1cc(/C=N/NC(=O)c2cccnc2)ccc1OC(=O)c1cccnc1 [Compound Z49575448]	10%	
O=C(O)c1cccc(N/N=C/c2ccc(N(c3ccccc3)c3ccccc3)cc2)c1 [Compound Z49584790]	18%	
Oc1cccc(/C=N/Nc2ccnc3cc(Cl)ccc23)c1 [Compound Z49625857]	-13%	
CCOc1cc(/C=N/Nc2ccnc3cc(Cl)ccc23)ccc1O [Compound Z49625899]	9%	
COc1ccc(/C=N/Nc2ccnc3cc(Cl)ccc23)cc1O [Compound Z49625943]	26%	-17%
COc1cc(/C=N/Nc2ccnc3cc(Cl)ccc23)ccc1OC(F)F [Compound Z49626092]	-10%	
COc1cc(/C=N/NC(=O)c2cc(-c3cccnc3)nc3ccccc23)ccc1OCc1ccc(Cl)cc1 [Compound Z49638448]	-1%	
CCn1c(O)c(N=Nc2ccc([N+](=O)[O-])cc2S(=O)(=O)Nc2ccc(C)cc2C)c2ccccc21 [Compound Z49643067]	44%	
O=S(=O)(N/N=C/c1ccc(N(c2ccccc2)c2ccccc2)cc1)c1ccc(Br)cc1 [Compound Z49646816]	27%	
Oc1[nH]c2ccc(Br)cc2c1N=Nc1ccccn1 [Compound Z49660185]	-9%	
Cc1nc2ccccc2c(=O)n1/N=C/c1c2ccccc2cc2ccccc12 [Compound Z49732101]	2%	
COc1cc(/C=N/Nc2ncnc3scc(-c4ccccc4)c23)ccc1O [Compound Z49889617]	13%	

SMILES	First screening IR (inhibition rate)	Second screening IR (inhibition rate)
COc1cc(/C=N/Nc2ncnc3sc(C)c(C)c23)ccc1O [Compound Z49890548]	21%	
Cc1sc2ncnc(N/N=C/c3cccc(Br)c3)c2c1C [Compound Z49890557]	5%	
Cc1sc2ncnc(N/N=C/c3ccncc3)c2c1C [Compound Z49890729]	3%	
Cc1sc2ncnc(N/N=C/c3cccc(O)c3)c2c1C [Compound Z49890739]	14%	
Cc1cccc(/C=N/Nc2ncnc3sc(C)c(C)c23)c1 [Compound Z49890788]	3%	
COc1ccc(/C=N/Nc2ncnc3sc(C)c(C)c23)cc1O [Compound Z49890825]	4%	
COc1cc(/C=N/Nc2ncnc3sc(-c4ccccc4)cc23)cc(OC)c1OC [Compound Z49894862]	34%	22%
COc1ccc2c(C)cc(N/N=C/c3ccncc3)nc2c1 [Compound Z50018323]	3%	
CCn1c(-c2ccncc2)nc2c1c(=O)[nH]c(=O)n2Cc1ccccc1 [Compound Z50138431]	-3%	
CCCCCn1c(-c2ccc(Sc3ccc(C)cc3)c([N+](=O)[O-])c2)nc2c1c(=O)[nH]c(=O)n2CCCC [Compound Z50141536]	-20%	
O=C(OCc1nc(-c2cccs2)no1)c1c(F)cccc1F [Compound Z51088101]	8%	
Cc1onc(-c2c(F)cccc2Cl)c1C(=O)OCc1nc(-c2cccs2)no1 [Compound Z51122297]	20%	
O=C(OCc1nc(-c2cccs2)no1)c1ccc2ccccc2n1 [Compound Z51170832]	19%	
O=C(OCc1nc(-c2cccs2)no1)c1c(F)cccc1Cl [Compound Z51180604]	8%	
COc1ccccc1-c1nnc(SCC(=O)c2ccc(NC(C)=O)cc2F)n1-c1ccccc1 [Compound Z51187459]	0%	
Cc1nnc(COC(=O)c2cc(-c3ccccc3)nc3c2cnn3C(C)C)o1 [Compound Z51550903]	-3%	
O=C(CCn1[nH]c(=O)ccc1=O)Nc1ccc(-n2cnnn2)cc1 [Compound Z51737757]	14%	
NC(=O)c1ccc(C(=O)N2CCN(c3ccccn3)CC2)cc1 [Compound Z51750245]	0%	
CC(C)n1ncc2c(C(=O)N(C)CC(=O)Nc3ccc(F)c(F)c3F)cc(-c3ccccc3)nc21 [Compound Z51761022]	12%	
Cc1c(C(=O)NCCOc2ccccc2)[nH]c2c1C(=O)CCC2 [Compound Z51800409]	4%	
CC(C)n1ncc2c(C(=O)Nc3ccccc3)cc(-c3ccccc3)nc21 [Compound Z51820408]	-10%	
Cc1c(C(=O)NCCOc2ccccc2F)[nH]c2c1C(=O)CCC2 [Compound Z51995316]	36%	
Cc1cc(C)n(CCCNC(=O)c2[nH]c3c(c2C)C(=O)CCC3)n1 [Compound Z51995634]	3%	
Cc1c(C(=O)NCCSc2ccc(Br)cc2)[nH]c2c1C(=O)CCC2 [Compound Z51996046]	8%	
